US20250333397A1 (REMIX THERAPEUTICS INC., priority 2021, published 2025)
Read-outs that look alike come from different tables or passages of the source.

Assays:
Assay type in all cases: cell-based, human
HTT mRNA = test: RT-qPCR splicing assay, HTT canonical (CJ) and alternative (AJ) junction mRNA; conditions: Homo sapiens; for AC50: read-out: HTT AJ (AC50, increase in AJ mRNA)
Method in brief: (§1)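 A673 (DMEM/10% FBS) or K562 (IMDM/10% FBS) cells treated 24 h at 37 °C with 11-point 3-fold dilutions, top 10 uM final, DMSO ≤0.25%. Lysates read by one-step RT-qPCR for CJ and AJ isoforms, normalized to GAPDH, GUSB or PPIA. ΔΔCt vs DMSO gives RQ via 2^(-ΔΔCt).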

MYB mRNA = test: RT-qPCR splicing assay, MYB canonical (CJ) and alternative (AJ) junction mRNA; conditions: Homo sapiens; for AC50: read-out: MYB AJ (AC50, increase in AJ mRNA)
Method in brief: as §1

SMN2 mRNA = test: RT-qPCR splicing assay panel, SMN2 canonical junction (CJ) mRNA; conditions: Homo sapiens, canonical junction (CJ) mRNA, RT-qPCR panel, Table 4A; read-out: SMN2, decrease in CJ mRNA levels, IC50
Method in brief: as §1

Target C mRNA = test: RT-qPCR splicing assay panel, Target C canonical junction (CJ) mRNA; conditions: Homo sapiens, canonical junction (CJ) mRNA, RT-qPCR panel, Table 4A; read-out: Target C, decrease in CJ mRNA levels, IC50
Method in brief: as §1

[1] = 24 h, Table 3A, A673 or K562 cells, 24 h treatment
[2] = 24 h, Table 3A, A673 or K562 cells, 24 h treatment, read-out: HTT CJ (IC50, decrease in CJ mRNA)
[3] = canonical junction (CJ) mRNA, RT-qPCR panel, Table 4A, read-out: HTT, decrease in CJ mRNA levels, IC50
[4] = 24 h, Table 3A, A673 or K562 cells, 24 h treatment, read-out: MYB CJ (IC50, decrease in CJ mRNA)
[5] = canonical junction (CJ) mRNA, RT-qPCR panel, Table 4A, read-out: MYB, decrease in CJ mRNA levels, IC50

| SMILES | IC50 (HTT mRNA; [2]) | IC50 (HTT mRNA; [3]) | IC50 (MYB mRNA; [4]) | IC50 (MYB mRNA; [5]) | IC50 (SMN2 mRNA) | IC50 (Target C mRNA) | AC50 (HTT mRNA; [1]) | AC50 (MYB mRNA; [1]) |
| --- | --- | --- | --- | --- | --- | --- | --- | --- |
| Cc1ccc(-c2ccc(-c3ccc(N4CC[C@H](NC5CCC5)C4)nn3)c(O)c2)cn1 [Compound 281] | 100 to 1000 nM | 100 to 1000 nM | 1000 to 10000 nM | 1000 to 10000 nM | < 100 nM | 1000 to 10000 nM | 100 to 1000 nM | 1000 to 10000 nM |
| COc1cc(-c2ccc(-c3ccc(N4CC[C@H](NC(C)(C)C)C4)nn3)c(O)c2)ncn1 [Compound 283, 2-{6-[(3S)-3-(tert-butylamino)pyrrolidin-1-yl]pyridazin-3-yl}-5-(6-methoxypyrimidin-4-yl)phenol] | < 100 nM | < 100 nM | 100 to 1000 nM | 100 to 1000 nM | < 100 nM | < 100 nM | < 100 nM | 100 to 1000 nM |
| COc1cc(-c2cc(O)c(-c3ccc(N4CCC(C)(NC(C)C)C4)nn3)cc2F)cnn1 (stereo not drawn) [Compound 284] | < 100 nM | < 100 nM | 100 to 1000 nM | 100 to 1000 nM | < 100 nM | 100 to 1000 nM | < 100 nM | 100 to 1000 nM |
| COc1cc(-c2ccc(-c3ccc(N4CCC(C)(NC(C)C)C4)nn3)c(O)c2)cnn1 (stereo not drawn) [Compound 285, 2-{6-[3-(isopropylamino)-3-methylpyrrolidin-1-yl]pyridazin-3-yl}-5-(6-methoxypyridazin-4-yl)phenol] | < 100 nM | < 100 nM | 100 to 1000 nM | 100 to 1000 nM | < 100 nM | < 100 nM | < 100 nM | 100 to 1000 nM |
| COc1cc(-c2ccc(-c3ccc(N4CC[C@@H](NC5(C)CCC5)C4)nn3)c(O)c2)cnn1 [Compound 287, (R)-5-(6-methoxypyridazin-4-yl)-2-(6-(3-((1-methylcyclobutyl)amino)pyrrolidin-1-yl)pyridazin-3-yl)phenol] | < 100 nM | < 100 nM | < 100 nM | < 100 nM | < 100 nM | < 100 nM | < 100 nM | < 100 nM |
| COc1cc(-c2ccc(-c3ccc(N4CC[C@@H](NCC5CC5)C4)nn3)c(O)c2)cnn1 [Compound 288] | < 100 nM | < 100 nM | 100 to 1000 nM | 100 to 1000 nM | < 100 nM | 100 to 1000 nM | 100 to 1000 nM | 100 to 1000 nM |
| COc1cc(-c2ccc(-c3ccc(N4CC[C@H](NC5(C)CCC5)C4)nn3)c(O)c2)cnn1 [Compound 289, (S)-5-(6-methoxypyridazin-4-yl)-2-(6-(3-((1-methylcyclobutyl)amino)pyrrolidin-1-yl)pyridazin-3-yl)phenol] | < 100 nM | < 100 nM | 100 to 1000 nM | 100 to 1000 nM | < 100 nM | < 100 nM | 100 to 1000 nM | 100 to 1000 nM |
| Cc1cc(-c2ccc(-c3ccc(N4CC[C@H](NC5CCC5)C4)nn3)c(O)c2)cnn1 [Compound 291, 2-{6-[(3S)-3-(cyclobutylamino)pyrrolidin-1-yl]pyridazin-3-yl}-5-(6-methylpyridazin-4-yl)phenol] | 1000 to 10000 nM | 1000 to 10000 nM | > 10000 nM | > 10000 nM | 1000 to 10000 nM | > 10000 nM | > 10000 nM | > 10000 nM |
| Cc1cc(-c2ccc(-c3ccc(N4CC[C@@H](NC5CCC5)C4)nn3)c(O)c2)cnn1 [Compound 292, 2-{6-[(3R)-3-(cyclobutylamino)pyrrolidin-1-yl]pyridazin-3-yl}-5-(6-methylpyridazin-4-yl)phenol] | > 10000 nM | > 10000 nM | > 10000 nM | > 10000 nM | 1000 to 10000 nM | > 10000 nM | > 10000 nM | > 10000 nM |
| Cc1ccc(-c2ccc(-c3ccc(N4CC[C@@H](NC5CCC5)C4)nn3)c(O)c2)cn1 [Compound 293, 2-{6-[(3R)-3-(cyclobutylamino)pyrrolidin-1-yl]pyridazin-3-yl}-5-(6-methylpyridin-3-yl)phenol] | 100 to 1000 nM | 100 to 1000 nM | 1000 to 10000 nM | 1000 to 10000 nM | < 100 nM | 1000 to 10000 nM | 100 to 1000 nM | 100 to 1000 nM |
| Cn1ncc(-c2ccc(-c3ccc(N4CC[C@@H](NC(C)(C)C)C4)nn3)c(O)c2)cc1=O [Compound 297, 5-(4-{6-[(3R)-3-(tert-butylamino)pyrrolidin-1-yl]pyridazin-3-yl}-3-hydroxyphenyl)-2-methylpyridazin-3-one] | < 100 nM | < 100 nM | < 100 nM | < 100 nM | < 100 nM | < 100 nM | < 100 nM | < 100 nM |
| Cn1ncc(-c2ccc(-c3ccc(N4CC[C@H](NC(C)(C)C)C4)nn3)c(O)c2)cc1=O [Compound 298, 5-(4-{6-[(3S)-3-(tert-butylamino)pyrrolidin-1-yl]pyridazin-3-yl}-3-hydroxyphenyl)-2-methylpyridazin-3-one] | < 100 nM | < 100 nM | 100 to 1000 nM | 100 to 1000 nM | < 100 nM | 100 to 1000 nM | 100 to 1000 nM | 100 to 1000 nM |

Further lines, with some results ahead:

| IC50 (HTT mRNA; [2]) | IC50 (HTT mRNA; [3]) | IC50 (MYB mRNA; [4]) | IC50 (MYB mRNA; [5]) | IC50 (SMN2 mRNA) | IC50 (Target C mRNA) | SMILES | AC50 (HTT mRNA; [1]) | AC50 (MYB mRNA; [1]) |
| --- | --- | --- | --- | --- | --- | --- | --- | --- |
| < 100 nM | < 100 nM | 1000 to 10000 nM | 1000 to 10000 nM | < 100 nM | 100 to 1000 nM | COc1cc(-c2cc(O)c(-c3ccc(N4CC[C@@H](NC5(C)CCC5)C4)nn3)cc2F)cnn1 [Compound 286] | 100 to 1000 nM | 1000 to 10000 nM |
| 100 to 1000 nM | 100 to 1000 nM | 100 to 1000 nM | 100 to 1000 nM | < 100 nM | 100 to 1000 nM | CCN(C1CCC1)[C@@H]1CCN(c2ccc(-c3ccc(-c4cnnc(OC)c4)cc3O)nn2)C1 [Compound 290, 2-{6-[(3R)-3-[cyclobutyl(ethyl)amino]pyrrolidin-1-yl]pyridazin-3-yl}-5-(6-methoxypyridazin-4-yl)phenol] | 100 to 1000 nM | 100 to 1000 nM |
| < 100 nM | < 100 nM | 100 to 1000 nM | 100 to 1000 nM | < 100 nM | 100 to 1000 nM | CN(C1CCC1)[C@H]1CCN(c2ccc(-c3ccc(-c4cn[nH]c4)cc3O)nn2)C1 [Compound 294, 2-{6-[(3S)-3-[cyclobutyl(methyl)amino]pyrrolidin-1-yl]pyridazin-3-yl}-5-(1H-pyrazol-4-yl)phenol] | 100 to 1000 nM | 100 to 1000 nM |
| < 100 nM | < 100 nM | 100 to 1000 nM | 100 to 1000 nM | < 100 nM | < 100 nM | CN(C1CCC1)[C@H]1CCN(c2ccc(-c3cc(F)c(-c4cn[nH]c4)cc3O)nn2)C1 [Compound 295] | < 100 nM | 100 to 1000 nM |
| 100 to 1000 nM | 100 to 1000 nM | 100 to 1000 nM | 100 to 1000 nM | < 100 nM | 100 to 1000 nM | CN(C1CCC1)[C@@H]1CCN(c2ccc(-c3ccc(-c4cn[nH]c4)cc3O)nn2)C1 [Compound 296, 2-{6-[(3R)-3-[cyclobutyl(methyl)amino]pyrrolidin-1-yl]pyridazin-3-yl}-5-(1H-pyrazol-4-yl)phenol] | 100 to 1000 nM | 100 to 1000 nM |
| < 100 nM | < 100 nM | 100 to 1000 nM | 100 to 1000 nM | < 100 nM | 100 to 1000 nM | COc1cc(-c2cc(O)c(-c3ccc(N4CC[C@H](NC5(C)CCC5)C4)nn3)cc2F)cnn1 [Compound 299] | < 100 nM | 100 to 1000 nM |
